We go through four compounds from patent US11993600B2, “Saturated spirocyclics as antiviral agents” (ENANTA PHARMACEUTICALS, INC., priority 2021, dated 2024).

Structures are written as SMILES.

The test has as its target SARS-CoV-2 3CL-protease (Severe acute respiratory syndrome coronavirus 2 (2019-nCoV) (SARS-CoV-2), UniProt P0DTD1). Put plainly: SARS-CoV-2 3C-like (3CL) protease fluorescence assay (FRET). Type of test: biochemical. To be noted: recombinant SARS-CoV-2 3CL-protease 10 nM, 30 min preincubation at RT, substrate 40 μM, run in duplicate.
In the case of `CC(C)C[C@@H](C(=O)N1C[C@]2(CCC3(CC3)NC2=O)C[C@H]1C#N)N(C)C(=O)c1cc2c(F)cc(F)cc2[nH]1` [Compound 4, N—((S)-1-((6S,9S)-9-cyano-5-oxo-4,8-diazadispiro[2.2.4^6.2^3]dodecan-8-yl)-4-methyl-1-oxopentan-2-yl)-4,6-difluoro-N-methyl-1H-indole-2-carboxamide], the IC50 is < 0.1 µM. In the case of `CN(C(=O)c1cc2c(F)cc(F)cc2[nH]1)[C@@H](CC(C)(C)F)C(=O)N1C[C@]2(CCCNC2=O)C[C@H]1C#N` [Compound 3, N—((S)-1-((3S,5S)-3-cyano-6-oxo-2,7-diazaspiro[4.5]decan-2-yl)-4-fluoro-4-methyl-1-oxopentan-2-yl)-4,6-difluoro-N-methyl-1H-indole-2-carboxamide] it was < 0.1 µM. In the case of `CC(C)C[C@@H](C(=O)N1C[C@]2(CCCNC2=O)C[C@H]1C#N)N(C)C(=O)c1cc2c(F)cc(F)cc2[nH]1` [Compound 2, N—((S)-1-((3S,5S)-3-cyano-6-oxo-2,7-diazaspiro[4.5]decan-2-yl)-4-methyl-1-oxopentan-2-yl)-4,6-difluoro-N-methyl-1H-indole-2-carboxamide] it was < 0.1 µM. In the case of `CN(C(=O)c1cc2c(F)cc(F)cc2[nH]1)[C@@H](CC(C)(C)F)C(=O)N1C[C@]2(CCNC2=O)C[C@H]1C#N` [Compound 1, N—((S)-1-((3S,5S)-3-cyano-6-oxo-2,7-diazaspiro[4.4]nonan-2-yl)-4-fluoro-4-methyl-1-oxopentan-2-yl)-4,6-difluoro-N-methyl-1H-indole-2-carboxamide] it was < 0.1 µM.

The IC50 is the midpoint of a concentration-inhibition curve.
